# Article PMC6161602, “Synthesis and characterisation of (Z)-styrylbenzene derivatives as potential selective anticancer agents” (Journal of Enzyme Inhibition and Medicinal Chemistry, 2018)
# Columns and labels:
# BEL-7402 cells [1] = test: Trypan blue staining; format: cell-based; conditions: 0.001 µM to 10 µM, data not shown
# Method: Trypan blue staining was used to further investigate the cytotoxicity of 6h.
# A549 lung cancer cell = test: MTT cell growth inhibition assay, A549; format: cell-based, human
# Source text: (§1) All human cell lines were used in this study. MGC-803 late-stage differentiation gastric cancer cell, A549 lung cancer cell, HepG2 hepatoma cell, AGS gastric cancer cell, BEL-7402 liver cancer cell, HCT-116 colorectal cancer cell, HeLa cervical cancer cell, SGC-7901 early differentiation gastric cancer cell, L-02 normal liver cell, MCF-7 breast cancer cell, and MCF-10A normal breast cell were initially purchased from American Type Culture Collection (ATCC, Manassas, VA, USA). RPMI-1640 media, Dulbecco’s modified Eagle’s medium (DMEM), and foetal bovine serum (FBS) were provided from Gibco Company (Grand Island, NY, USA). The cells were maintained in DMEM or RPMI-1640, supplemented with 10% FBS, 100 IU/mL penicillin and […] (Grand Island, NY, USA), and at 37 °C in a humidified atmosphere containing 5% CO2.
# (§2) Cells were plated in 96-well plates at a density of 30–40% to ensure exponential growth throughout the experimental period, and then allowed to adhere for 1 day[21]. Next, the cells were treated with four serial concentrations (1, 10, 50, and 100 µM) of each compound. Taxol, CA-4, and CA-4P (phosphorylated form of CA-4) were used as positive controls. After 48 h incubation, MTT solution was added to each well at a final concentration of 2 mg/mL, and incubated for an additional 4 h. Next, the MTT solution was removed and 150 µL of dimethyl sulphoxide (DMSO)/well was added (Sigma-Aldrich, St Louis, MO, USA). The plates were shaken vigorously at RT to ensure complete solubilisation, and absorption at 492 nm was determined.
# (§3) According to standard protocol, preliminary in vitro anti-proliferative activities of the synthesised compounds were evaluated by MTT assay, using nine human cancer cell lines (MGC-803, A549, HepG2, AGS, BEL-7402, HCT116, HeLa, SGC-7901, and MCF-7) and two normal human cell lines (L-02 and MCF-10A), and compared with those of CA-4, CA-4P, and taxol.
# [2] = tested on: HeLa cervical cancer cell; test: MTT cell growth inhibition assay, HeLa; format: cell-based, human; conditions: Homo sapiens, 48 h incubation
# Source text: as §1, §2, §3
# MGC-803 cells = test: MTT cell growth inhibition assay, MGC-803; format: cell-based, human; conditions: for IC50: MTT, 48 h incubation, MGC-803
# Source text: as §1, §2, §3
# AGS cells = test: MTT cell growth inhibition assay, AGS; format: cell-based, human
# Source text: as §1, §2, §3
# BEL-7402 cells [3] = test: Analysis of apoptosis by flow cytometry (Annexin V-FITC/PI); format: cell-based, human; conditions: BEL-7402, 0.1 µM, 12 h; vehicle 4.7%
# Method: Apoptosis was detected using an apoptosis detection kit. BEL-7402 cells were plated in 6-well plates (5.0 × 10^5 cells/well) and incubated at 37 °C overnight. Exponentially growing cells were then incubated with 6h at either 0.01 or 0.1 µM, or taxol at 0.1 µM. Vehicle group was treated with 0.1% DMSO. Following 12 h of incubation, cells were analysed for apoptosis as previously described, using a FACSCalibur flow cytometer with Cell Quest software (Becton-Dickinson, Franklin Lakes, NJ, USA).
# MCF-7 breast cancer cell = test: MTT cell growth inhibition assay, MCF-7; format: cell-based, human
# Source text: as §1, §2, §3
# BEL-7402 cells [4] = test: MTT cell growth inhibition assay, BEL-7402; format: cell-based, human; conditions: Homo sapiens; MTT, 48 h incubation, Bel-7402
# Source text: as §1, §2, §3
# BEL-7402 cells [5] = test: Transwell cell migration assay; format: cell-based, human; conditions: BEL-7402, transwell, 24 h, 0.1 or 0.5 µM
# Method: Quantitative cell migration was performed using 24-well Boyden chambers (Corning, NY, USA) as described. Briefly, transwells with 8-µm pore size filters were inserted into 24-well plates. RPMI-1640 (500 µL) containing 10% FBS was added to the lower chamber, and 100 µL of a serum-free cell suspension (1 × 10^5 cells) was placed in the upper chamber. The BEL-7402 cells were pre-treated with indicated concentrations of 6h, taxol, or DMSO. The plates were incubated at 37 °C with 5% CO2 for 24 h, and the cells on the upside were removed using cotton swaps. After several rinses, the cells adhering in the lower layer of insert were fixed with methanol and stained with 1× crystal violet solution. The number of migrated cells in nine randomly selected fields from triplicate chambers was counted in each experiment under a phase-contrast microscope at 200× magnification.
# cyclin D1 = test: Western blotting, cyclin D1; format: cell-based, human; conditions: BEL-7402, 12 h, immunoblot, dose-dependent
# Method: (§4) BEL-7402 cells were harvested in logarithmic growth phase and the adherent and floating cells were collected after 12 h of drug treatment. The collected cells were resuspended in cold RIPA buffer (100 mM NaCl, 100 mM Tris (pH7.4), 10% Triton X-100, 1 mM PMSF, pH7.5) with 0.1 µM leupetin protease inhibitor as well as 1 µg/mL pepstatin and cracked on ice for 30 min. Then according to the reference to did immunoblotting assay.
# cyclin B1 = test: Western blotting, cyclin B1; format: cell-based, human; conditions: BEL-7402, 12 h, immunoblot
# Method: as §4
# HCT116 cells = test: MTT cell growth inhibition assay, HCT116; format: cell-based, human
# Source text: as §1, §2, §3
# [6] = tested on: SGC-7901 early differentiation gastric cancer cell; test: MTT cell growth inhibition assay, SGC-7901; format: cell-based, human; conditions: Homo sapiens, 48 h incubation
# Source text: as §1, §2, §3
structure (smiles),measurement,setting,value
"COc1cc(/C(C#N)=C/c2ccc(C)cc2)cc(OC)c1OC [Compound 6h, (Z)-3-(p-Tolyl)-2-(3,4,5-trimethoxyphenyl)acrylonitrile]",percentages of dead cells (trypan blue),BEL-7402 cells [1],negligible
same,IC50,"A549 lung cancer cell; Homo sapiens, MTT, 48 h incubation, A549",530 ± 23 nM
same,SI IC50 (L-02/A549),"A549 lung cancer cell; selectivity index, IC50 (L-02)/IC50 (A549)",>188.6
same,IC50,[2],> 100000 nM
same,fold more active than taxol against MGC-803 cells,MGC-803 cells,6 fold
same,IC50,"MGC-803 cells; Homo sapiens, MGC-803, 48 h",10 to 7210 nM
same,IC50,MGC-803 cells,< 10 nM
same,IC50,"AGS cells; Homo sapiens, MTT, 48 h incubation, AGS",510 ± 450 nM
same,SI IC50 (L-02/AGS),"AGS cells; selectivity index, IC50 (L-02)/IC50 (AGS)",>196.0
same,total apoptotic cells (early + late apoptotic cells),BEL-7402 cells [3],10.2%
same,IC50,"MCF-7 breast cancer cell; Homo sapiens, MCF7, MTT, 48 h incubation, MCF-7",2610 ± 980 nM
same,SI IC50 (MCF-10A/MCF-7),"MCF-7 breast cancer cell; selectivity index, IC50 (MCF-10A)/IC50 (MCF-7)",>3.6
same,IC50,BEL-7402 cells [4],150 ± 30 nM
same,migration ratio compared with the control group,BEL-7402 cells [5],markedly decreased
same,expression of cyclin D1 compared with the vehicle group,cyclin D1,lower expression
same,expression of cyclin B1 compared with vehicle or 0.1 µM of taxol,cyclin B1,increased expression
same,IC50,"HCT116 cells; Homo sapiens, HCT-116, MTT, 48 h incubation, HCT116",610 ± 160 nM
same,SI IC50 (L-02/HCT116),"HCT116 cells; selectivity index, IC50 (L-02)/IC50 (HCT116)",>163.9
same,IC50,[6],> 100000 nM
